Assay results published in ChEMBL document CHEMBL1155421, “Evaluation of a 4-aminopiperidine replacement in several series of CCR5 antagonists” (Bioorg Med Chem Lett, 2010).

Experiments:
[1] = biological target: C-C chemokine receptor type 5 (Homo sapiens, UniProt P51681); assay: Displacement of […] from CCR5 receptor receptors expressed in CHO cells; type: cell-based
[2] = test system: Human immunodeficiency virus 1; assay: Antiviral activity against HIV1 NLBal infected JC53BL cells assessed as inhibition of replication by luciferase reporter assay; type: functional, organism-based; settings: Human immunodeficiency virus 1, NLBal

Chain of C-C chemokine receptor type 5 (P51681 whole entry): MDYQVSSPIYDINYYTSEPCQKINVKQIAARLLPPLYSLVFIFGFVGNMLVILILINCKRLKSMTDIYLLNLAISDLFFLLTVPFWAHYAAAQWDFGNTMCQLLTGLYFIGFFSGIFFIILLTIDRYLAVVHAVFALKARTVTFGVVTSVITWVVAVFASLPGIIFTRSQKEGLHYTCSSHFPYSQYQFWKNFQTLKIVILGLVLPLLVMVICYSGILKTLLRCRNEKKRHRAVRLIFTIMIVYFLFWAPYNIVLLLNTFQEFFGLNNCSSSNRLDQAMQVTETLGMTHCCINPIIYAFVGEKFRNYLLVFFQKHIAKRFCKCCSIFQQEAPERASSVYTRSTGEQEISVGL

SMILES	IC50 [1] [nM]	IC50 [2] [nM]
COC[C@@H](c1ccc(C(F)(F)F)cc1)N1CCN(C2C[C@@H]3CN(C(=O)c4c(C)ncnc4C)C[C@@H]3C2)C[C@@H]1C (some centres undefined)	> 500	> 625
COC[C@@H](c1ccc(C(F)(F)F)cc1)N1CCN(C2C[C@@H]3CN(C(=O)c4c(C)ccnc4C)C[C@@H]3C2)C[C@@H]1C (some centres undefined)	> 500	> 625
COC[C@@H](c1ccc(C(F)(F)F)cc1)N1CCN(C2C[C@@H]3CN(C(=O)c4c(C)cc(C#N)nc4C)C[C@@H]3C2)C[C@@H]1C (some centres undefined)	> 500	> 625
CCO[C@H]1Cc2cc(C(F)(F)F)ccc2[C@@H]1N1CCN(C2C[C@@H]3CN(C(=O)c4c(C)ncnc4C)C[C@@H]3C2)C[C@@H]1C (some centres undefined)	92	> 625
CCO[C@H]1Cc2cc(C(F)(F)F)ccc2[C@@H]1N1CCN(C2C[C@@H]3CN(C(=O)c4c(C)ccnc4C)C[C@@H]3C2)C[C@@H]1C (some centres undefined)	98	357
CCO[C@H]1Cc2cc(C(F)(F)F)ccc2[C@@H]1N1CCN(C2C[C@@H]3CN(C(=O)c4c(C)cc(C#N)nc4C)C[C@@H]3C2)C[C@@H]1C (some centres undefined)	45	59
CCCC[C@H]1CN(CC2CCOCC2)C(=O)OC12CCN(C1C[C@@H]3CN(C(=O)c4c(C)ncnc4C)C[C@@H]3C1)CC2 (some centres undefined)	14	262
CCCC[C@H]1CN(CC2CCOCC2)C(=O)OC12CCN(C1C[C@@H]3CN(C(=O)c4c(C)cc(C#N)nc4C)C[C@@H]3C1)CC2 (some centres undefined)	15	9
CCCC[C@H]1CN(CC2CCOCC2)C(=O)OC12CCN(C1(C)C[C@H]3CN(C(=O)c4c(C)ncnc4C)C[C@H]3C1)CC2 (some centres undefined)	25	≥ 625
CCCC[C@H]1CN(CC2CCOCC2)C(=O)OC12CCN(C1(C)C[C@H]3CN(C(=O)c4c(C)cc(C#N)nc4C)C[C@H]3C1)CC2 (some centres undefined)	61	18
CCCC[C@H]1CN(C[C@H]2CC[C@H](OCC)CC2)C(=O)OC12CCN(C1C[C@@H]3CN(C(=O)c4c(C)ncnc4C)C[C@@H]3C1)CC2 (some centres undefined)	44	19
CCCC[C@H]1CN(C[C@H]2CC[C@H](OCC)CC2)C(=O)OC12CCN(C1C[C@@H]3CN(C(=O)c4c(C)ccnc4C)C[C@@H]3C1)CC2 (some centres undefined)	34	4
CCCC[C@H]1CN(C[C@H]2CC[C@H](OC(C)C)CC2)C(=O)OC12CCN(C1C[C@@H]3CN(C(=O)c4c(C)ncnc4C)C[C@@H]3C1)CC2 (some centres undefined)	23	12
CCCC[C@H]1CN(C[C@H]2CC[C@H](OC3CC3)CC2)C(=O)OC12CCN(C1C[C@@H]3CN(C(=O)c4c(C)ncnc4C)C[C@@H]3C1)CC2 (some centres undefined)	27	12
CCCC[C@H]1CN(CC2CCOCC2)C(=O)OC12CCN(C1(C)CCN(C(=O)c3c(C)ncnc3C)CC1)CC2	4	
